Assay results taken from PMC6984732, “Thymidine phosphorylase and prostrate cancer cell proliferation inhibitory activities of synthetic 4-hydroxybenzohydrazides: In vitro, kinetic, and in silico studies” (PLoS ONE, 2020).

Legend:
[1] = biological target: T1, thymidine phosphorylase (TP) (Escherichia coli, UniProt P07650); test: Thymidine phosphorylase inhibition assay (spectrophotometric, 290 nm); format: biochemical, E. coli; conditions: for inhibition: read-out: Percent Inhibition of thymidine phosphorylase, 10 μL of test compound (0.5 mM in dimethylsulfoxide) per well, <50% regarded inactive; for IC50: recombinant TP expressed in E. coli, substrate thymidine, pH 7.0, 30°C, N.A. = not active, read-out: IC50 (μM ± SEM), thymidine phosphorylase inhibition
T1 construct: purchased Sigma Aldrich, USA; host or cells: E. coli
Experimental: Since human TP is not commercially available, we used commercially available recombinant TP (expressed in E. coli) enzyme. Primary sequence of TP is mostly conserved throughout the evolution and mammalian TP share 39% sequence similarity with TP of E. coli. The mammalian enzyme also shares 65–70% similarity with the active site residues of E. coli TP enzyme.
Assay for TP inhibition was performed spectrophotometrically, following the method of Bera et al. with some modifications. Enzyme TP catalyzed the reversible phosphorolysis of thymidine to thymine and 2-deoxyribose-1-phosphate. Reaction mixture contained 150 μL of potassium phosphate buffer (pH 7.0, 50 mM), 20 μL of enzyme (0.058 U/well), and 10 μL of test compound (0.5 mM in dimethylsulfoxide). The reaction mixture was incubated for 10 min at 30°C. 20 μL of substrate (1.5 mM) was then added and change in absorbance was recorded after every minute for a total time period of 10 minutes at 290 nm in ELISA plate reader (Spectra Max-340, Molecular Devices, CA, USA).
We have used the 96-well UV-plates, purchased from Corning (Catalogue No. COSTAR 3635, Lot No. 00912050). […] We then added the substrate (thymidine), and recorded the final readings.

[2] = biological target: T1, thymidine phosphorylase (TP); test: Kinetic studies on thymidine phosphorylase (Lineweaver-Burk, secondary re-plot, Dixon plot); format: biochemical, E. coli; conditions: thymidine as variable substrate; for Inhibition Type: from Lineweaver-Burk plot
Experimental: Kinetic studies were carried out to identify the mechanism of inhibition by these compounds. Inhibitor could bind with the enzyme in multiple ways, such as in competitive, non-competitive, mixed or uncompetitive way. In kinetic assay, the enzyme (0.058 U/200 μL) was incubated with different concentrations of inhibitor for 10 min at 30°C. The reaction was then initiated by adding different concentrations (0.1875–1.5 mM) of substrate (thymidine), and the resulting degradation of thymidine was measured continuously at 290 nm for 10 min on ELISA plate reader. Every experiment was run in triplicate.
Lineweaver-Burk plot was plotted to determine the type of inhibition. This was accomplished by plotting the reciprocal of the rate of reaction against the reciprocal of the substrate concentration. Ki values were determined by secondary re-plot of Lineweaver-Burk plot, and reconfirmed by Dixon plot.

[3] = tested on: mouse fibroblast (3T3) cells; test: MTT anti-proliferative (cytotoxicity) assay, 3T3 cells; format: cell-based; conditions: NIH3T3, 48 h incubation, mouse fibroblast normal cell line, read-out: IC50 ± Standard Deviation, 3T3 Cell Line
Experimental: (§1) Anti-proliferative activity of active compounds was evaluated by using the standard MTT (3-[4,5-dimethylthiazole-2-yl]-2,5-diphenyl-tetrazolium bromide) colorimetric assay in 96-well plate.
(§2) It is a colorimetric assay that measures the reduction of MTT by mitochondrial enzyme i.e. succinate dehydrogenase. The MTT enters into the mitochondria of cell, where it is reduced to an insoluble formazan salt. As reduction of MTT can only occur in metabolically active cells, the level of activity is actually a measure of the viability of the cells.
(§3) Mouse fibroblast normal cell line 3T3, and prostate cancer line (PC3) were cultured separately in DMEM, supplemented with 5% of FBS, 100 IU/mL of penicillin and 100 μg/mL of streptomycin, and kept at 37°C in 5% CO2 incubator. For the preparation of cell culture, 100 μL/well of cell solution (5 x 10^4 cells/mL) was added into 96-well plate. The plate was incubated for overnight, and fresh medium was added after the removal of old medium. The test compounds were also added in different concentrations into the plate, and again incubated for 48 h. After the completion of this incubation period, 200 μL MTT (0.5 mg/mL) was added, and plate was again incubated for 4 h, after this final incubation, 100 μL of DMSO was added to each well. The level of MTT reduction to formazan was evaluated by change in absorbance at 540 nm for 3T3, and 570 nm for PC3 using a micro-plate reader (Spectra Max plus, Molecular Devices, CA, USA).

[4] = tested on: prostate cancer (PC3) cells; test: MTT anti-proliferative assay, PC3 cells; format: cell-based; conditions: Homo sapiens, PC-3, 48 h incubation, prostate cancer cell line, read-out: IC50 ± Standard Deviation, PC3 Cell Line
Experimental: as §1, §2, §3

T1 sequence (P07650 whole entry): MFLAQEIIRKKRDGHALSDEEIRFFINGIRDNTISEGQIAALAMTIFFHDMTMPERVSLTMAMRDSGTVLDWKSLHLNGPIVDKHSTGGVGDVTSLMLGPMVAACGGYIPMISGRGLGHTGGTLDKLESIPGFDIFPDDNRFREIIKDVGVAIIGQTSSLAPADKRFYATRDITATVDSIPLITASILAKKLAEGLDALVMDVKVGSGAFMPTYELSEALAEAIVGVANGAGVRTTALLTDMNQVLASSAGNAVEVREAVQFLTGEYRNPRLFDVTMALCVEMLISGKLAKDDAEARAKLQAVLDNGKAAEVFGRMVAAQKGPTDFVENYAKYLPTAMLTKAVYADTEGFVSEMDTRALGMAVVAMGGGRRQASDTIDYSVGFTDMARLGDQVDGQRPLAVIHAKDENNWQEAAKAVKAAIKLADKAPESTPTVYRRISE

Structure (SMILES) | inhibition [1] | IC50 [1] | Inhibition Type [2] | Ki ([2]; secondary re-plot of Lineweaver-Burk plot, reconfirmed by Dixon plot, read-out: Ki (μM ± SEM)) | IC50 [3] | IC50 [4]
O=C(NN=Cc1cc(Br)cc(Br)c1O)c1ccc(O)cc1 [Compound 22, N'-[(E)-(3^′,5^′-Dibromo-2^′-hydroxylphenyl)methylidene]-4-hydroxylbenzohydrazide] | 99.9% | 6.8 ± 0.7 µM | Non-competitive | 1.75 ± 0.009 µM | 9.2 ± 0.1 µM | 8.3 ± 0.9 µM
C/C(=N\NC(=O)c1ccc(O)cc1)c1c(O)cccc1O [Compound 27, N'-[(E)-1-(2^′,6^′-Dihydroxylphenyl)ethylidene]-4-hydroxylbenzohydrazide] | 93% |  | Uncompetitive |  | 26.7 ± 1 µM | > 30 µM
CC/C(=N\NC(=O)c1ccc(O)cc1)c1cc(O)ccc1O [Compound 29, N'-[(E)-1-(2^′,5^′-Dihydroxylphenyl)propylidene]-4-hydroxylbenzohydrazide] | 99% | 173 ± 1.4 µM | Uncompetitive |  | 19.5 ± 0.9 µM | > 30 µM
